Assay results published in US20160175324A1, “ANTI-ACNE COMPOSITIONS COMPRISING BILE ACID-FATTY ACID CONJUGATES” (GALDERM THERAPEUTICS LTD., priority 2013, published 2016).

How the values were obtained:
human skin fibroblasts = assay: Cholesterol efflux with [3H] cholesterol in fibroblasts; assay type: cell-based; details: 20 hours incubation, compared to untreated cells
Protocol: (§1) Steamchol was incubated with human skin fibroblasts for 20 hours to measure cholesterol loading in the presence of [^3H] cholesterol. After series of washing and adding efflux containing cholesterol acceptors, medium was collected and centrifuged and cell associated cholesterol was compared to effluxed cholesterol in the presence and absence of the similar FABAC. This research project also included quantification of mRNA of ABCA1 and direct measurement of ABCA1.
(§2) Similarly, cells were pre-incubated with […] cholesterol, washed four times and then placed in an incubation medium with or without Aramchol for 20 hours. Following the incubation, radioactivity was measured separately in the medium and in the cells. Cholesterol efflux percentage was calculated as radioactivity in medium divided by the total radioactivity (cells+medium).

ABCA1 [1] = assay: ABCA1 protein concentration in fibroblasts during cholesterol efflux; assay type: cell-based, human; details: efflux in the presence of FABAC, compared to untreated cells
Protocol: as §1, §2

sebum production = details: background statement; cited from earlier work
ABCA1 [2] = assay: Taqman gene expression in Epiderm FT skin culture, ABCA1 mRNA; assay type: cell-based; details: 0.5% (5000 μg/mL) in DMSO, 24 hours post-application, vs DMSO control
Protocol: (§3) A full-thickness in vitro skin culture model, Epiderm FT (MatTek, MA), was treated with Steamchol. A non-cytotoxic concentration of Steamchol in DMSO (0.5%, 5000 μg/mL) was applied to the surface of each test culture and cells were collected 24 hours post-application. Control cells were similarly treated with DMSO without Steamchol. Tissues were collected in RNAlater for gene expression analysis. Gene expression was analyzed using validated Taqman gene expression assays in a Taqman Low Density Array (TLDA) format. 94 genes that regulate a variety of known functions in skin were analyzed, including the ABCA1 and SCD1 genes. The experimental set up was conducted in a 96-well format using validated Taqman gene expression assays. Each gene was assayed in duplicates. Statistics were carried out using the StatMiner software v4.2 (unpaired t-tests, p<0.05, N=4) to compare the 0.5% Steamchol group to the DMSO control group.

KRT10 (keratin 10) = assay: Taqman gene expression in Epiderm FT skin culture, KRT10; assay type: cell-based; details: 0.5% (5000 μg/mL) in DMSO, 24 hours post-application, vs DMSO control
Protocol: as §3

[3] = test system: Full-thickness Epiderm cultures (EFT-400, MatTek); assay: Cytotoxicity assay (MTT) after topical application to full-thickness skin cultures; assay type: cell-based; details: for Cell Viability: 24-hour exposure, MTT, vs untreated control
Protocol: Full-thickness Epiderm cultures (EFT-400, MatTek) were used to determine toxicity in response to topical application of a test material (Steamchol).
The test material was provided as a powder. Test solutions were prepared by adding the appropriate amount of powdered material to 1 mL DMSO. Lower concentrations were made by serial dilution with 100% DMSO. The final test material concentrations and treatments were: 2% Steamchol (20,000 ug/mL); 1% Steamchol (10,000 ug/mL); 0.1% Steamchol (1000 ug/mL); 0.01% Steamchol (100 ug/mL); vehicle control (100% DMSO); and untreated control.
Full-thickness skin cultures (EFT-400) were maintained according to MatTek protocol; the cultures were equilibrated at 37° C. and 5% CO2 for 24 hours prior to application of test materials. Test material was applied to the surface of each culture using sterile techniques (10 μL applied to each culture). Two cultures were assigned to each treatment group and the viability percentages presented below are averages of viability of each two cultures. Two EFT cultures served as an untreated control (also referred to as negative control in FIG. 2), and two other EFT cultures served as a positive control (100 μL 1% Triton X-100).
Following a 24-hour incubation period with the test material, cultures were processed for cell toxicity analysis using an MTT [(3-4,5-dimethylthiazole-2-yl) 2,5-diphenyltetrazoliumbromide] assay (reagents purchased from MatTek). Viable tissues converted MTT into a blue formazan salt that was detected by measuring absorbance at a specific wavelength of light (A570). Percent viability was calculated by comparing the A570 reading of the test cultures to the A570 of the untreated control culture, using the following formula: [Treated A570/Untreated A570]*100

KRT1 (keratin 1) = assay: Taqman gene expression in Epiderm FT skin culture, KRT1; assay type: cell-based; details: 0.5% (5000 μg/mL) in DMSO, 24 hours post-application, vs DMSO control
Protocol: as §3

| Compound | Cholesterol efflux in fibroblasts (human skin fibroblasts) | ABCA1 protein concentration increase (ABCA1 [1]) | Decrease of sebum production (sebum production) | Change in mRNA levels of ABCA1 (ABCA1 [2]) | Fold Change of keratin 10 gene expression (KRT10 (keratin 10)) | Cell Viability ([3]; 0.01% Steamchol (100 ug/mL) in DMSO) | Cell Viability ([3]; 0.1% Steamchol (1000 ug/mL) in DMSO) | Cell Viability ([3]; 1% Steamchol (10,000 ug/mL) in DMSO) | Cell Viability ([3]; 2% Steamchol (20,000 ug/mL) in DMSO) | Toxicity in previous viability assay ([3]; 40.0, 13.3, 4.4, 1.5 ug/mL, data not shown) | Cell viability compared to the untreated control ([3]; all dilutions tested (0.01%-2%), 24 hours) | Fold Change of keratin 1 gene expression (KRT1 (keratin 1)) |
| --- | --- | --- | --- | --- | --- | --- | --- | --- | --- | --- | --- | --- |
| CCCCCCCCCCCCCCCCCCCC(=O)N[C@H]1CC[C@@]2(C)[C@@H](C1)C[C@@H](O)[C@@H]1[C@@H]2C[C@H](O)[C@]2(C)[C@@H]([C@H](C)CCC(=O)O)CC[C@@H]12 [Aramchol, 3β-arachidylamido-7α,12α, dihidroxy-5β-cholan-24-oic acid] | significantly enhanced | approximately 2 fold | – | – | – | – | – | – | – | – | – | – |
| CC1=C(/C=C/C(C)=C/C=C/C(C)=C\C(=O)O)C(C)(C)CCC1 [Isotretinoin] | – | – | up to 90% | – | – | – | – | – | – | – | – | – |
| CCCCCCCCCCCCCCCCCC(=O)N[C@H]1CC[C@@]2(C)[C@@H](C1)C[C@@H](O)[C@@H]1[C@@H]2C[C@H](O)[C@]2(C)[C@@H]([C@H](C)CCC(=O)O)CC[C@@H]12 [Steamchol, 3β-stearylamido-7α,12α, dihidroxy-5β-cholan-24-oic acid] | significantly enhanced | approximately 2 fold | – | No significant change | −2.60 | 100.41% | 99.98% | 96.88% | 93.89% | no toxicity was observed | ~100% | −2.49 |
